What was measured:
[1] = biological target: T1, human recombinant CA XIII (Homo sapiens, UniProt Q8N1Q1); assay: Fluorescent thermal shift assay (FTSA), CA XIII; assay type: binding; details: 37° C., pH 7.0
T1 construct: recombinant human carbonic anhydrase catalytic domains using the fluorescent thermal shift assay; made in house
Description: (§1) The protein solution in the absence and presence of various compound concentrations was heated from 25 to 99° C. (heating rate 1° C./min). The melting temperature Tm shift was determined by following the fluorescence of 8-anilino-1-naphthalene sulfonate (ANS). The samples consisted of 5 μM protein (except 10 μM for CA IV), different concentrations of compound (usually 0-200 μM), 50 μM ANS and 50 mM sodium phosphate buffer (at pH 7.0) containing 100 mM sodium chloride and 2% (v/v) of DMSO. Compound binding constant was obtained from protein Tm as a function of the added ligand concentration. Data analysis was performed, and the curves were fit so that the binding constant is determined for 37° C.

human recombinant CA IV = biological target: T2, human recombinant CA IV (Homo sapiens, UniProt P22748); assay: Fluorescent thermal shift assay (FTSA), CA IV; assay type: binding; details: 37° C., pH 7.0
T2 construct: recombinant human carbonic anhydrase catalytic domains using the fluorescent thermal shift assay; made in house
Description: as §1

human recombinant CA VA = biological target: T3, human recombinant CA VA (Homo sapiens, UniProt P35218); assay: Fluorescent thermal shift assay (FTSA), CA VA; assay type: binding; details: 37° C., pH 7.0
T3 construct: recombinant human carbonic anhydrase catalytic domains using the fluorescent thermal shift assay; made in house
Description: as §1

human recombinant CA VI = biological target: T4, human recombinant CA VI (Homo sapiens, UniProt P23280); assay: Fluorescent thermal shift assay (FTSA), CA VI; assay type: binding; details: 37° C., pH 7.0
T4 construct: recombinant human carbonic anhydrase catalytic domains using the fluorescent thermal shift assay; made in house
Description: as §1

human recombinant CA XIV = biological target: T5, human recombinant CA XIV (Homo sapiens, UniProt Q9ULX7); assay: Fluorescent thermal shift assay (FTSA), CA XIV; assay type: binding; details: 37° C., pH 7.0
T5 construct: recombinant human carbonic anhydrase catalytic domains using the fluorescent thermal shift assay; made in house
Description: as §1

human recombinant CA VII = biological target: T6, human recombinant CA VII (Homo sapiens, UniProt P43166); assay: Fluorescent thermal shift assay (FTSA), CA VII; assay type: binding; details: 37° C., pH 7.0
T6 construct: recombinant human carbonic anhydrase catalytic domains using the fluorescent thermal shift assay; made in house
Description: as §1

human recombinant CA IX = biological target: T7, human recombinant CA IX (Homo sapiens, UniProt Q16790); assay: Fluorescent thermal shift assay (FTSA), CA IX; assay type: binding; details: 37° C., pH 7.0
T7 construct: recombinant human carbonic anhydrase catalytic domains using the fluorescent thermal shift assay; made in house
Description: as §1

human recombinant CA III = biological target: T8, human recombinant CA III (Homo sapiens, UniProt P07451); assay: Fluorescent thermal shift assay (FTSA), CA III; assay type: binding; details: 37° C., pH 7.0
T8 construct: recombinant human carbonic anhydrase catalytic domains using the fluorescent thermal shift assay; made in house
Description: as §1

human recombinant CA I = biological target: T9, human recombinant CA I (Homo sapiens, UniProt P00915); assay: Fluorescent thermal shift assay (FTSA), CA I; assay type: binding; details: 37° C., pH 7.0
T9 construct: recombinant human carbonic anhydrase catalytic domains using the fluorescent thermal shift assay; made in house
Description: as §1

human recombinant CA VB = biological target: T10, human recombinant CA VB (Homo sapiens, UniProt Q9Y2D0); assay: Fluorescent thermal shift assay (FTSA), CA VB; assay type: binding; details: 37° C., pH 7.0
T10 construct: recombinant human carbonic anhydrase catalytic domains using the fluorescent thermal shift assay; made in house
Description: as §1

human recombinant CA XII = biological target: T11, human recombinant CA XII (Homo sapiens, UniProt O43570); assay: Fluorescent thermal shift assay (FTSA), CA XII; assay type: binding; details: 37° C., pH 7.0
T11 construct: recombinant human carbonic anhydrase catalytic domains using the fluorescent thermal shift assay; made in house
Description: as §1

human recombinant CA II = biological target: T12, human recombinant CA II (Homo sapiens, UniProt P00918); assay: Fluorescent thermal shift assay (FTSA), CA II; assay type: binding; details: 37° C., pH 7.0
T12 construct: recombinant human carbonic anhydrase catalytic domains using the fluorescent thermal shift assay; made in house
Description: as §1

carbonic anhydrase IX = biological target: T13, carbonic anhydrase IX (Homo sapiens, UniProt Q16790); assay: Inhibition of CA enzymatic (CO2 hydratase) activity; assay type: biochemical
T13 construct: made in house
Description: The inhibition of hydratase activity of carbonic anhydrase I, II, and IX was performed using Applied Photophysics SX.18 MV-R instrument at 24° C. Theaturated substrate solution was prepared by bubbling carbon dioxide gas into Milly-Q water for 1 hour at room temperature. Phenol red was used as a pH indicator to follow the absorbance (A-557 nm) while CA acidified the medium. […] Raw curves were fitted using a single exponential model, and the dissociation constants were determined using the Morrison equation: […]
Where [CA] is a total added concentration of active CA, [I]—total added inhibitor concentration, and Kd is inhibitor binding affinity.

HeLa cancer cell culture = assay: Acidification of extracellular medium by hypoxic HeLa cell culture; assay type: cell-based, human; details: 1 μM compound
Description: FIG. 6. HeLa cancer cell culture grown for 48 hours under hypoxic (1% O2) conditions caused acidification of extracellular medium as visualized by pH drop from initial pH 7.74 (shown as a dashed bold line) to pH 6.35.

T2 sequence (P22748 21-285 limits assumed): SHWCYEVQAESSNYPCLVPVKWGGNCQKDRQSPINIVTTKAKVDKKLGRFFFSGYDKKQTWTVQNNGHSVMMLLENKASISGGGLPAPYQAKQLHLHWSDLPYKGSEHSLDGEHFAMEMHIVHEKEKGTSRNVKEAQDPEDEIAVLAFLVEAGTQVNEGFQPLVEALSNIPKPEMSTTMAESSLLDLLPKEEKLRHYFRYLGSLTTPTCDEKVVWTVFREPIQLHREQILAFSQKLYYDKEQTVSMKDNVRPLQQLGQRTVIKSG
T11 sequence (O43570 30-289 limits assumed): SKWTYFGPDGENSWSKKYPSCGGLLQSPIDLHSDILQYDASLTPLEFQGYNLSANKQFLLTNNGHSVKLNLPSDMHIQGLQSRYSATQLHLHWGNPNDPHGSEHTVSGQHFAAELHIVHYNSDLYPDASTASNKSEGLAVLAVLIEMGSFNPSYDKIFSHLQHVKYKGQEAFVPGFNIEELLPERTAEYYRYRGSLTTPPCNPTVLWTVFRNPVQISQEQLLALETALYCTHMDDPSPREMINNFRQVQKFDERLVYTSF
T6 sequence (P43166 5-262 limits assumed): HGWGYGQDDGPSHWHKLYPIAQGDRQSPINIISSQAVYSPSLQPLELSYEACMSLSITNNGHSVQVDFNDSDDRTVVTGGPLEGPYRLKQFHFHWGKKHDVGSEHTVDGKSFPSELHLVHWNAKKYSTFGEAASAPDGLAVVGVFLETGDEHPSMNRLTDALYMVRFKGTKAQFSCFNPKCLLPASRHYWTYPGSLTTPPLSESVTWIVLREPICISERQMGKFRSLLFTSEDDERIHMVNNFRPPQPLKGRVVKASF
T5 sequence (Q9ULX7 20-278 limits assumed): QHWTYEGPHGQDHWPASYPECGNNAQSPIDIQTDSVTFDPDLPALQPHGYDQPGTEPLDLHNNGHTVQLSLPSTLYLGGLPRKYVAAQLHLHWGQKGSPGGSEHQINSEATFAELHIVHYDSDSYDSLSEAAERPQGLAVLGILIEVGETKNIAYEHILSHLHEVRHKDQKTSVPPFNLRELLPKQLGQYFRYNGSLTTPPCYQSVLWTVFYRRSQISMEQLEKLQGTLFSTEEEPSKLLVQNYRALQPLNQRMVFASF
T3 sequence (P35218 39-296 limits assumed): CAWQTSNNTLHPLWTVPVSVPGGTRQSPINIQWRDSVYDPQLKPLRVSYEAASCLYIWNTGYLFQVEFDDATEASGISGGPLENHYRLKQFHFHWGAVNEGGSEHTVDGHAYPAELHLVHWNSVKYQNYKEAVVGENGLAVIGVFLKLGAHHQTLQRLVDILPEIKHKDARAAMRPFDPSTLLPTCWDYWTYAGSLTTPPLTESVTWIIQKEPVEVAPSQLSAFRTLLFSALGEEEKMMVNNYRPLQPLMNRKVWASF
T8 sequence (P07451 3-259 limits assumed): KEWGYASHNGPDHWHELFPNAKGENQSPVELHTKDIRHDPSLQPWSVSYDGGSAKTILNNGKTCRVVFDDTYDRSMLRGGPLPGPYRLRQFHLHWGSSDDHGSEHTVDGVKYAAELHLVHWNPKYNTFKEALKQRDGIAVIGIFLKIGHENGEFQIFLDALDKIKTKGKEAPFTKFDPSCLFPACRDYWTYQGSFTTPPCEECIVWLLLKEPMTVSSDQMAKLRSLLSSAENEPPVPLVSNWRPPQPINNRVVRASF
T9 sequence (P00915 4-261 limits assumed): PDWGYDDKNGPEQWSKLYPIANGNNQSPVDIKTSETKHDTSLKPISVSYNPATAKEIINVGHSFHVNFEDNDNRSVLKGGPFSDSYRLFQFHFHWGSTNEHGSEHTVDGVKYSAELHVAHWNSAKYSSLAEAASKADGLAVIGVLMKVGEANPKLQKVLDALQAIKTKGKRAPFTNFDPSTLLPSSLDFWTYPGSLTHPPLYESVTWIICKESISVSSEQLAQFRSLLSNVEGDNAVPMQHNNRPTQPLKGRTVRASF
T1 sequence (Q8N1Q1 4-261 limits assumed): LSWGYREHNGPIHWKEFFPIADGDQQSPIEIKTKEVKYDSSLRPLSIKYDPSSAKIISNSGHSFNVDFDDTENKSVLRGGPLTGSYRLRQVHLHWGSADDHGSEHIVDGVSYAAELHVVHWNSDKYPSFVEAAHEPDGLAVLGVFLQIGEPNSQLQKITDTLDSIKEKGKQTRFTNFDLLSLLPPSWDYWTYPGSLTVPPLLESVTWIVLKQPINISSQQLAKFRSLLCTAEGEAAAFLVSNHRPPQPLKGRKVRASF
T10 sequence (Q9Y2D0 37-296 limits assumed): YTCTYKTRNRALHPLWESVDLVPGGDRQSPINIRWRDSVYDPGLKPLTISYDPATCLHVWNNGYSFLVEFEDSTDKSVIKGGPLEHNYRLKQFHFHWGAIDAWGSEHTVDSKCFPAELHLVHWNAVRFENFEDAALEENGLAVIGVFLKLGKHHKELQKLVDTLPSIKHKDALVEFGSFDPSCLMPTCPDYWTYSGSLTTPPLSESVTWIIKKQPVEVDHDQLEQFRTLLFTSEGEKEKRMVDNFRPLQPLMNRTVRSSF
T4 sequence (P23280 21-278 limits assumed): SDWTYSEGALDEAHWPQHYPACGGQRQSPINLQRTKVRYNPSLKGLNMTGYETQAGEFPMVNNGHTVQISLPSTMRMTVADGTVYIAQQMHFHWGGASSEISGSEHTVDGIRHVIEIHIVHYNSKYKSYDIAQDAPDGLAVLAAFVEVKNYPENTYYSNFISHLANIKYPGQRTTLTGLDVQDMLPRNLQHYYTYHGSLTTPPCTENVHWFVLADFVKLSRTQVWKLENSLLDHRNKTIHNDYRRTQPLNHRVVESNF

SMILES	Kd [1] [nM]	Kd (human recombinant CA IV) [nM]	Kd (human recombinant CA VA) [nM]	Kd (human recombinant CA VI) [nM]	Kd (human recombinant CA XIV) [nM]	Kd (human recombinant CA VII) [nM]	Kd (human recombinant CA IX) [nM]	Kd (human recombinant CA III) [nM]	Kd (human recombinant CA I) [nM]	Kd (human recombinant CA VB) [nM]	Kd (human recombinant CA XII) [nM]	Kd (human recombinant CA II) [nM]	IC50 (carbonic anhydrase IX; 50 nM enzyme CA IX, compound titrates the enzyme, read-out: Compound concentration at 50% remaining activity of CA IX) [nM]	Kd (carbonic anhydrase IX; read-out: Real affinity for CA IX as bounded by enzymatic inhibition) [nM]	Inhibition of acidification at 1 μM (HeLa cancer cell culture)
NS(=O)(=O)c1c(F)c(F)c(S(=O)(=O)CCNC(=O)CCOCCOCCOCCOCCOCCOCCOCCOCCOCCOCCOCCOCCNC(=O)CCCCC2SCC3NC(=O)NC32)c(NC2CCCCCCC2)c1F (centres unmarked) [AZ19-1, N-[2-[2-[2-[2-[2-[2-[2-[2-[2-[2-[2-[2-[3-[2-[2-(cyclooctylamino)-3,5,6-trifluoro-4-sulfamoyl-phenyl]sulfonylmethylamine]-3-oxo-propoxy]ethoxy]ethoxy]ethoxy]ethoxy]ethoxy]ethoxy]ethoxy]ethoxy]ethoxy]ethoxy]ethoxy]ethyl]-5-(2-oxo-1,3,3a,4,6,6a-hexahydrothieno[3,4-d]imidazol-4-yl)pentanamide]	50	1000	7100	980	27	150	0.1	≥ 200000	10000	83	50	450			
NS(=O)(=O)c1c(F)c(F)c(S(=O)(=O)CCNC(=O)CCOCCOCCOCCOCCOCCOCCOCCOCCOCCOCCOCCOCCOCCC(=O)O)c(NC2CCCCCCC2)c1F [AZ19-3-1, 3-[2-[2-[2-[2-[2-[2-[2-[2-[2-[2-[2-[2-[3-[2-[2-(cyclooctylamino)-3,5,6-trifluoro-4-sulfamoyl-phenyl]sulfonylethylamino]-3-oxo-propoxy]ethoxy]ethoxy]ethoxy]ethoxy]ethoxy]ethoxy]ethoxy]ethoxy]ethoxy]ethoxy]ethoxy]ethoxy]propanoic acid]	20	1000	10000	500	10	50	0.05	≥ 200000	10000	70	20	250			
NS(=O)(=O)c1c(F)c(F)c(S(=O)(=O)CCNC(=O)CCOCCOCCOCCOCCOCCOCCOCCOCCOCCOCCOCCOCCOCCC(=O)NCCS(=O)(=O)c2c(F)c(F)c(S(N)(=O)=O)c(F)c2NC2CCCCCCC2)c(NC2CCCCCCC2)c1F [AZ19-3-2, N-[2-[2-(cyclooctylamino)-3,5,6-trifluoro-4-sulfamoyl-phenyl]sulfonylethyl]-3-[2-[2-[2-[2-[2-[2-[2-[2-[2-[2-[2-[2-[3-[2-[2-(cyclooctylamino)-3,5,6-trifluoro-4-sulfamoyl-phenyl]sulfonylethylamino]-3-oxo-propoxy]ethoxy]ethoxy]ethoxy]ethoxy]ethoxy]ethoxy]ethoxy]ethoxy]ethoxy]ethoxy]ethoxy]ethoxy]propanamide]	2	250	3000		8.3	330	0.015	≥ 200000	3300	70	20	100	~10	< 10	mostly inhibited
